25 compounds from US20110287468A1, “METHODS AND COMPOSITIONS FOR ASSAYING ENZYMATIC ACTIVITY OF MYELOPEROXIDASE IN BLOOD SAMPLES” (General Atomics, priority 2010, published 2011) can be followed below.

Holding throughout (assay type): biochemical
In data set [1] the target is T1, MPO (Homo sapiens, UniProt P05164). The data set can be described thus: Interference by a specific MPO inhibitor (ABAH) added to the formed dye. The following applies: 0.2 mM H2O2, 47 ng/mL MPO, 100 mM phosphate buffer pH 6.0-7.0; for ΔOD/min (after inhibitor): after 0.1 mM ABAH; for ΔOD/min (before inhibitor): before ABAH; for Interference by Inhibitor: 0.1 mM ABAH added to the formed dye. The procedure: Interference by a specific MPO inhibitor was evaluated by adding 0.1 mM of 4-aminobenzoic acid hydrazide (ABAH) to the formed dye (i.e. the colored product of the substrate oxidation) in the buffer solution. Before the addition of the inhibitor, the reaction mixture contained the chromogenic substrates, as well as 0.2 mM H2O2 (co-substrate) and 47 ng/mL MPO in 100 mM phosphate buffer (pH 6.0-7.0). Interference by the inhibitor was designated as “low” if the absorption changed by ≦0.01 ΔOD/min and “high” if the absorption changed by >0.01 ΔOD/min. The results are summarized in Tables 2 and 6, and the corresponding kinetic traces are shown on FIG. 1.

For data set [2], the target named is T1, MPO. The data set can be described thus: Sensitivity of chromogenic substrates: MPO peroxidase activity in buffer solution. The following applies: 0.24 mM H2O2, 94 ng/mL MPO, 100 mM phosphate buffer pH 6.0-7.0; for Sensitivity: class of ΔOD/min; for ΔOD/min: read at the substrate's wavelength. The text has this: Substrate sensitivity was designated as “high” if ΔOD/min was above 0.2, “fair” if ΔOD/min was between 0.05 and 0.2, and “poor” if ΔOD/min was below 0.05.

Data set [3] addresses T2, MPO (Homo sapiens, UniProt P05164).
T2 construct: In a cuvette, 140 μL of Reagent 1 and 25 μL of plasma sample were mixed; from tissue; host or cells: human lithium heparin plasma
T2 sequence (P05164 49-745): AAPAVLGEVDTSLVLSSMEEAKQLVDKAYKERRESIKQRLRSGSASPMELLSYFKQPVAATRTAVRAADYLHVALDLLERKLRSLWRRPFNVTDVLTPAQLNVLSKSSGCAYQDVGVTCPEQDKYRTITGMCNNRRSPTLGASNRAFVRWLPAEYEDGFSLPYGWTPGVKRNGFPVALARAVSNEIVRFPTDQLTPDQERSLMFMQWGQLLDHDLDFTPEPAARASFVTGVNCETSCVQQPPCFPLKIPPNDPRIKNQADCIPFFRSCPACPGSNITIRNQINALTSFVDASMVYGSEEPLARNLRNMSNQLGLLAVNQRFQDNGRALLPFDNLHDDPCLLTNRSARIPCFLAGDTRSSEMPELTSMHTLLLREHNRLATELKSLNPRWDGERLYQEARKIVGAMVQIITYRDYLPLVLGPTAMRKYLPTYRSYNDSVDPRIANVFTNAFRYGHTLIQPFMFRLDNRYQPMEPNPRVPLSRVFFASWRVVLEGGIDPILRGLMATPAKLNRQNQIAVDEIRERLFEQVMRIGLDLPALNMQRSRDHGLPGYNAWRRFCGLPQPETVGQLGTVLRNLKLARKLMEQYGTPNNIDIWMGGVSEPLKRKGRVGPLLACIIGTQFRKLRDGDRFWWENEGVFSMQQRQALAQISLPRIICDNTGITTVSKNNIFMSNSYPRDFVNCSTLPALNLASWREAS
The experiment in a line: MPO peroxidase assay in lithium heparin plasma (Hitachi 917): effects of common plasma substances on assay performance. The following applies: nearly neutral pH.
Description: To measure MPO peroxidase activity in blood samples, the following liquid stable, ready-to-use assay reagents were used:
The MPO peroxidase assay is formulated for use with non-hemolyzed lithium heparin plasma. No special handling or pretreatment is required. Plasma samples were collected such that testing could be performed as soon as possible after the specimen collection. Although the specimens may be refrigerated at 2-8° C. for 2-5 days, freezing plasma samples may lead to a decrease in MPO peroxidase activity.
In a cuvette, 140 μL of Reagent 1 and 25 μL of plasma sample were mixed and incubated at 37° C. for 1.5 minutes. Absorbance at 505 nm was read at about 2 minutes after the addition of 60 μL Reagent 2 as A1. The reaction was then incubated for approximately 3 more minutes, and the absorbance was read again as A2. The rate of the total peroxidation reaction was calculated as follows: Rate A=(A2−A1)/t, wherein t≈3 min
At about 5 minutes after the addition of Reagent 2, 46 μL of Reagent 3 was added to the reaction mix. Absorbance at 505 nm was read at about 2 minutes after the addition of Reagent 3 as A3. The reaction was then incubated for approximately 3 more minutes and the absorbance was read again as A4. The rate of the non-MPO peroxidation reaction was calculated as follows: Rate B=(A4−A3)/t, wherein t 3 min […]

As to “3,5-Dichloro-2-hydroxybenzenesulfonate, disodium salt/4AA or 3,5-Dichloro-2-hydroxybenzenesulfonic acid/4AA [DHBS/4AA]”, at MPO [1], the “ΔOD/min (after inhibitor)” value is given as 0.002 ΔOD/min and the “ΔOD/min (before inhibitor)” value is reported as 0.089 ΔOD/min.
Turning to 4-Methylcatechol/4AA [4-MC/4AA], the Sensitivity entry on MPO [2] is recorded as “Poor (“poor” if ΔOD/min was below 0.05)”. For the same compound, the “Interference by Inhibitor” value at MPO [1] was “high numbers of false positives”.
In the case of `CC(=O)N1c2ccc(O)cc2Oc2cc(O)ccc21` [Amplex, N-Acetyl-3,7-dihydroxyphenoxazine (Amplex ® UltraRed)], on MPO [2], the ΔOD/min was 0.018 ΔOD/min and the Sensitivity entry is given as “Poor (“poor” if ΔOD/min was below 0.05)”.
In the case of `CN(C)c1ccc(N(C(=O)NCC(=O)[O-])c2ccc(N(C)C)cc2)cc1.[Na+]` [DA64, N-(Carboxymethylaminocarbonyl)-4,4′-bis(dimethylamino)-diphenylamine sodium salt], at MPO [2], the ΔOD/min is recorded as 0.0012 ΔOD/min and the Sensitivity result is listed as “Poor (“poor” if ΔOD/min was below 0.05)”.
The matching figures for `CN(C)c1ccc2c(c1)Sc1cc(N(C)C)ccc1N2C(=O)NCC(=O)[O-].[Na+]` [DA67, 10-(Carboxymethylaminocarbonyl)-3,7-bis(dimethylamino)-phenothiazine sodium salt]: 0.023 ΔOD/min and “Poor (“poor” if ΔOD/min was below 0.05)”.
For `Nc1ccc(-c2ccc(N)c(N)c2)cc1N` [DAB, 3,3′-Diaminobenzidine] the same measures were 0.0093 ΔOD/min and “Poor (“poor” if ΔOD/min was below 0.05)”.
In the case of `COc1ccccc1O` [Guaiacol, 1-Hydroxy-2-methoxybenzene; 2-Methoxyphenol], at MPO [2], the ΔOD/min is given as 0.37 ΔOD/min and the Sensitivity result is recorded as “High (“high” if ΔOD/min was above 0.2)”.
For `O=N[O-].[K+]` [KNO2, Potassium nitrite] the same measures were “No signal” and “Poor (“poor” if ΔOD/min was below 0.05)”.
For `Cc1cc(-c2ccc(NCC(O)CS(=O)(=O)[O-])c(C)c2)ccc1NCC(O)CS(=O)(=O)[O-].[Na+].[Na+]` (centres unmarked) [SAT-3, N,N′-Bis(2-hydroxy-3-sulfopropyl)tolidine, disodium salt,] the same measures were 0 ΔOD/min and “Poor (“poor” if ΔOD/min was below 0.05)”.
The matching figures for `CCCCCCCCCCCCCC[N+](C)(C)Cc1ccccc1.[Cl-]` [TDBA, Tetradecyldimethylbenzylammonium chloride]: 0 ΔOD/min and “Poor (“poor” if ΔOD/min was below 0.05)”.
For the compound `Cc1cc(-c2cc(C)c(N)c(C)c2)cc(C)c1N` [TMB, 3,3′,5,5′-Tetramethylbenzidine], at MPO [2], the ΔOD/min is listed as 0.32 ΔOD/min and the Sensitivity entry was “High (“high” if ΔOD/min was above 0.2)”.
In the case of `COc1cc(-c2ccc(N)c(OC)c2)ccc1N.Cl.Cl` [o-dianisidine, o-Dianisidine dihydrochloride], the Sensitivity entry on MPO [2] (dihydrochloride) is listed as “precipitated out of solution”. In addition, at MPO [3], the “behaviour of the chromogenic substrate in blood samples” value is on record as “precipitated from blood samples”.
In the case of “N,N-Bis(4-sulfobutyl)-3,5-dimethylaniline, disodium salt/4AA [MADB/4AA]”, at MPO [2], the ΔOD/min is listed as 0.04 ΔOD/min and the Sensitivity result is “Poor (“poor” if ΔOD/min was below 0.05)”.
Regarding “N,N-Bis(4-sulfobutyl)-3-methylaniline, disodium salt (TODB)/3-Methyl-2-benzothiazolinone hydrazone (MBTH) [TODB/MBTH]”, the Sensitivity entry on MPO [2] was “Fair (“fair” if ΔOD/min was between 0.05 and 0.2)”. Also, at MPO [1], the “Interference by Inhibitor” value is on record as “high numbers of false positives”.
For “N,N-Bis(4-sulfobutyl)-3-methylaniline, disodium salt/4AA [TODB/4AA]”, the ΔOD/min at MPO [2] is 0.07 ΔOD/min. At MPO [1], the “ΔOD/min (after inhibitor)” value is recorded as 0.001 ΔOD/min and the “ΔOD/min (before inhibitor)” value was 0.077 ΔOD/min.
“N,N-dimethylaniline (DMA)/3-Methyl-2-benzothiazolinone hydrazone (MBTH) [DMA/MBTH]”: at MPO [2], the Sensitivity result is reported as “Poor (“poor” if ΔOD/min was below 0.05)”.
As to “N-(2-Hydroxy-3-sulfopropyl)-3,5-dimethoxyaniline, sodium salt/4AA [HDAOS/4AA]”, on MPO [2], the ΔOD/min is on record as 0.03 ΔOD/min and the Sensitivity result is reported as “Poor (“poor” if ΔOD/min was below 0.05)”.
Take “N-Ethyl-N-(2-hydroxy-3-sulfopropyl)-3,5-dimethoxyaniline, sodium salt/4AA [DAOS/4AA]”: on MPO [2], the ΔOD/min is given as 0.025 ΔOD/min and the Sensitivity entry was “Poor (“poor” if ΔOD/min was below 0.05)”.
The matching figures for “N-Ethyl-N-(2-hydroxy-3-sulfopropyl)-3,5-dimethylaniline, sodium salt, monohydrate/4AA [MAOS/4AA]”: 0.045 ΔOD/min and “Poor (“poor” if ΔOD/min was below 0.05)”.
The matching figures for “N-Ethyl-N-(2-hydroxy-3-sulfopropyl)-3-methoxylaniline, sodium salt, dehydrate/4AA [ADOS/4AA]”: 0.04 ΔOD/min and “Poor (“poor” if ΔOD/min was below 0.05)”.
In the case of “N-Ethyl-N-(2-hydroxy-3-sulfopropyl)-3-methylaniline, sodium salt, dehydrate/4-Aminoantipyrine (4AA) [TOOS/4AA]”, the ΔOD/min at MPO [2] is on record as 0.12 ΔOD/min. Further, on MPO [1], the “ΔOD/min (after inhibitor)” value is on record as 0.004 ΔOD/min and the “ΔOD/min (before inhibitor)” value is on record as 0.087 ΔOD/min.
As to “N-Ethyl-N-(3-sulfopropyl)-3-methoxyaniline, sodium salt, monohydrate/4AA [ADPS/4AA]”, on MPO [2], the ΔOD/min is recorded as 0.004 ΔOD/min and the Sensitivity result is reported as “Poor (“poor” if ΔOD/min was below 0.05)”.
“N-Ethyl-N-(3-sulfopropyl)-3-methylaniline, sodium salt/4AA [TOPS/4AA]”: the ΔOD/min on MPO [2] is listed as 0.055 ΔOD/min.
“N-Ethyl-N-(3-sulfopropyl)-aniline, sodium salt (ALPS)/3-Methyl-2-benzothiazolinone hydrazone (MBTH) [ALPS/MBTH]”: the Sensitivity entry on MPO [2] was “Fair (“fair” if ΔOD/min was between 0.05 and 0.2)”. The “Interference by Inhibitor” value on MPO [1] is on record as “high numbers of false positives”.
With “N-Ethyl-N-(3-sulfopropyl)-aniline, sodium salt/4AA [ALPS/4AA]”, at MPO [1], the “ΔOD/min (after inhibitor)” value is given as −0.003 ΔOD/min and the “ΔOD/min (before inhibitor)” value is on record as 0.086 ΔOD/min.
